{
  "source": "paper PMC4807248",
  "about": "(The Journal of Biological Chemistry, 2016)",
  "key": {"PqsBC [1]": {"target": "T1, PqsBC (Pseudomonas aeruginosa, UniProt Q9I4X1, C129S)", "T1 construct": "gene pqsC", "T1 sequence (Q9I4X1 whole entry, stated change not applied, one chain of several)": "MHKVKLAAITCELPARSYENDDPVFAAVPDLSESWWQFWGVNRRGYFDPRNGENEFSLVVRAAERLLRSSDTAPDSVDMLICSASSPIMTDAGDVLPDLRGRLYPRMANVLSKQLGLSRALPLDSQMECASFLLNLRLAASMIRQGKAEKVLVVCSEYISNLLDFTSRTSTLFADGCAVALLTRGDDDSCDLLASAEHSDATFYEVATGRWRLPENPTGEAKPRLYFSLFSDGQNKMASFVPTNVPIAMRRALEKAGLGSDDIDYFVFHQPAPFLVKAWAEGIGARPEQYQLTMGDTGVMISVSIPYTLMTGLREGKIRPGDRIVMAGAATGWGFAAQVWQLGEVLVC", "assay": "biochemical"}, "PqsBC [2]": {"target": "T2, PqsBC (Pseudomonas aeruginosa, UniProt Q9I4X1, C129A)", "T2 construct": "gene pqsC", "T2 sequence (Q9I4X1 whole entry, stated change not applied, one chain of several)": "as above", "assay": "biochemical"}, "PqsBC [3]": {"target": "T3, PqsBC (Pseudomonas aeruginosa, UniProt Q9I4X1, V299N)", "T3 construct": "gene pqsC", "T3 sequence (Q9I4X1 whole entry, stated change not applied, one chain of several)": "as above", "assay": "biochemical"}, "PqsBC [4]": {"target": "T4, PqsBC (Pseudomonas aeruginosa, UniProt Q9I4X1, H269A)", "T4 construct": "gene pqsC", "T4 sequence (Q9I4X1 whole entry, stated change not applied, one chain of several)": "as above", "assay": "biochemical"}, "PqsC^C129A": {"target": "T5, PqsC^C129A (P. aeruginosa PAO1, UniProt Q9I4X1 2-348, C129A)", "T5 construct": "also called PqsC subunit of PqsBC^C129A", "T5 sequence": "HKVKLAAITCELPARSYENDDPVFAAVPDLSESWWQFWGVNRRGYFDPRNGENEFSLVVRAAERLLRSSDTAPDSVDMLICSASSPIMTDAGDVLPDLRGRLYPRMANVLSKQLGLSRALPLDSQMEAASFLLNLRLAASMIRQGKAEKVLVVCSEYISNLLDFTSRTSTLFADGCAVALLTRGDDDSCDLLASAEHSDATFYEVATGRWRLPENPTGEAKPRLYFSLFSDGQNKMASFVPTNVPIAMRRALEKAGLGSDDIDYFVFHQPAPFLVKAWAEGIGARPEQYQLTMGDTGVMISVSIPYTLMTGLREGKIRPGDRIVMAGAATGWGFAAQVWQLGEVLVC", "assay": "crystal structure; PqsBC^C129A crystallised in 25% PEG 3350, 0.1 M Tris pH 8.3, 0.2 M NaCl; 2.0 Å; four copies of PqsB and four of PqsC in the asymmetric unit", "conditions": "both partners purified"}},
  "data": [
    {"molecule": "Nc1ccccc1C(=O)CC(=O)O", "note": "[2-aminobenzoylacetate]", "values": [
      {"measurement": "Kd", "setting": "PqsBC [1]", "value": "411 ± 43", "unit": "µM"},
      {"measurement": "Kd", "setting": "PqsBC [2]", "value": "330 ± 30", "unit": "µM"},
      {"measurement": "Kd", "setting": "PqsBC [3]", "value": "> 1000", "unit": "µM"},
      {"measurement": "Kd", "setting": "PqsBC [4]", "value": "198 ± 11", "unit": "µM"}
    ]},
    {"molecule": "CC(=O)c1ccccc1N", "note": "[2-aminoacetophenone]", "values": [
      {"measurement": "Kd", "setting": "PqsBC [1]", "value": "170 ± 10", "unit": "µM"},
      {"measurement": "Kd", "setting": "PqsBC [2]", "value": "158 ± 12", "unit": "µM"},
      {"measurement": "Kd", "setting": "PqsBC [3]", "value": "> 1000", "unit": "µM"},
      {"measurement": "Kd", "setting": "PqsBC [4]", "value": "117 ± 6", "unit": "µM"}
    ]},
    {"molecule": "PqsB (natural protein, also called PqsB subunit of PqsBC) MLIQAVGVNLPPSYVCLEGPLGGERPRAQGDEMLMQRLLPAVREALDEAAVKPEEIDLIVGLALSPDHLIENRDIMAPKIGHPLQKVLGANRAHVFDLTDSSLARALYVVDTLASDQGYRNVLVVRGESSQGLEVDSESGFALADGALALLCRPTGKAAFRRGALGGDPAQEWLPLSIPLNTDIRQVGDVKGHLNLPAQPGLPEAVRAGFTRLAGDFPQLNWVREEWFGQGRPDGRCLGPFELASQLRAAQRDRLDELLLISFDPFGMVVEGVTLELAGEAHA", "values": [
      {"measurement": "binding result", "setting": "PqsC^C129A", "value": "binds"}
    ]}
  ]
}
